# Patent publication EP4104829A1 (priority 2021, dated 2022)
# Read-outs that look alike come from different tables or passages of the source.
# Legend:
# [1] = test system: foot-and-mouth disease virus (FMDV); conditions: cited from earlier work
# [2] = test system: HCoV-229E-GFP; experiment: organism not typed; assay type: cell-based
# [3] = test system: SARS-CoV-2; experiment: microbe, parasite or virus in culture; assay type: cell-based; conditions: for IC50: Severe acute respiratory syndrome coronavirus 2, Vero C1008
# [4] = test system: HCoV-229E-GFP; assay type: cell-based
# [5] = Cell viability by MTT assay (cytotoxicity), Huh-7; conditions: human, Huh-7 cells
# [6] = test system: SARS-CoV-2 MAD-6
# [7] = test system: SARS-CoV-2 (MAD-6); experiment: microbe, parasite or virus in culture; assay type: cell-based; conditions: Severe acute respiratory syndrome coronavirus 2, Caco-2
# [8] = test system: FMDV; conditions: mouse, in vivo, 100 mg/kg; cited from earlier work
# [9] = test system: HCoV-229E-GFP
# [10] = test system: SARS-CoV-2 (MAD-6); experiment: microbe, parasite or virus in culture; assay type: cell-based; conditions: Severe acute respiratory syndrome coronavirus 2, Vero C1008
# [11] = test system: HCoV-229E-GFP; assay type: cell-based; remark: listed apart in the source
# [12] = Cell viability by MTT assay (cytotoxicity), Caco-2; conditions: human, Caco-2 cells
# [13] = Cell viability by MTT assay (cytotoxicity), Vero-E6; conditions: African green monkey, Vero-E6 cells
compound,measurement,setting,value
"CCCCCCCCOC(=O)c1cc(O)c(O)c(O)c1 [OG, octyl gallate]",inhibition of FMDV production,[1],totally ineffective
same,reduction of the HCoV-229E-GFP infection,[2],up to 2 log.u.
same,IC50,[2]; Huh-7,6.21 µM
O=C(O)c1cc(O)c(O)c(O)c1 [gallic acid],inhibition of FMDV production,[1],totally ineffective
same,virus inhibition,[2],unable to produce virus inhibition
same,SI,[3],"6,2"
same,IC50,[3],40.3 µM
"CCCCCCCCCCCCOC(=O)c1cc(O)c(O)c(O)c1 [LG, Lauryl Gallate]",reduction of the virus productivity,[1],up to 2 log.u.
same,decrease in the HCoV-229E-GFP yield,[4],more than 2 log.u.
same,CC50 at 24 h,[5],83.1 µM
same,direct virucidal effect on the virus particle,[6],No direct toxicity
same,IC50,[7],2.98 µM
same,clinical signs,[8],reduction
same,mortality,[8],reduction
same,viral RNA copies in different tissues,[8],reduction
same,direct virucidal effect on the virus particle,[9],No direct toxicity
same,IC50,[10],1.28 µM
same,IC50,[11],2.05 µM
same,reduction of the HCoV-229E-GFP infection,[2],up to 2 log.u.
same,SI,[3],"70,9"
same,IC50,[3],1.22 µM
same,CC50 at 24 h,[12],97.1 µM
same,CC50 at 24 h,[13],90.1 µM
"CCCOC(=O)c1cc(O)c(O)c(O)c1 [PG, propyl gallate]",inhibition of FMDV production,[1],totally ineffective
same,virus inhibition,[2],unable to produce virus inhibition
O=C(O[C@@H]1Cc2c(O)cc(O)cc2O[C@@H]1c1ccc(O)c(O)c1)c1cc(O)c(O)c(O)c1 [epicatechin gallate],SI,[3],"5,8"
same,IC50,[3],50.1 µM
